{"source": "ChEMBL document CHEMBL1140115", "about": "“Glycol porphyrin derivatives as potent photodynamic inducers of apoptosis in tumor cells” (J Med Chem, 2008)", "key": {"[1]": {"test_system": "HL-60", "test": "Phototoxicity against human HL60 cells on exposure to 13.3 J/cm'2 light after 16 hrs by Trypan blue exclusion method", "assay_type": "functional, cell-based", "conditions": "HL-60, light or radiation study"}, "[2]": {"test_system": "4T1", "test": "Phototoxicity against mouse 4T1 cells on exposure to 13.3 J/cm'2 light after 16 hrs by Trypan blue exclusion method", "assay_type": "functional, cell-based", "conditions": "4T1, light or radiation study"}, "[3]": {"test_system": "4T1", "test": "Phototoxicity against mouse 4T1 cells on exposure to 3.8 J/cm'2 light after 16 hrs by Trypan blue exclusion method", "assay_type": "functional, cell-based", "conditions": "4T1, light or radiation study"}, "[4]": {"test_system": "4T1", "test": "Phototoxicity against mouse 4T1 cells on exposure to 2.5 J/cm'2 light after 16 hrs by Trypan blue exclusion method", "assay_type": "functional, cell-based", "conditions": "4T1, light or radiation study"}, "[5]": {"test_system": "HL-60", "test": "Phototoxicity against human HL60 cells on exposure to 2.5 J/cm'2 light after 16 hrs by Trypan blue exclusion method", "assay_type": "functional, cell-based", "conditions": "HL-60, light or radiation study"}, "[6]": {"test_system": "HL-60", "test": "Induction of apoptosis in human HL60 cells assessed as late apoptotic cells at 300 nM on exposure to 2.5 J/cm'2 light for 5.5 hrs by annexin V-propidium iodide staining", "assay_type": "functional"}, "[7]": {"test_system": "HL-60", "test": "Induction of apoptosis in human HL60 cells assessed as reduction in Mcl-1 level on exposure to 2.5 J/cm'2 light for 2 hrs by Western blot analysis", "assay_type": "functional, cell-based"}, "[8]": {"test_system": "HL-60", "test": "Induction of apoptosis in human HL60 cells assessed as activation of caspase 3 on exposure to 2.5 J/cm'2 light for 2 hrs by Western blot analysis", "assay_type": "functional, cell-based"}, "[9]": {"test_system": "HL-60", "test": "Induction of apoptosis in human HL60 cells assessed as activation of JNK on exposure to 2.5 J/cm'2 light for 2 hrs by Western blot analysis", "assay_type": "functional, cell-based"}, "[10]": {"test_system": "HL-60", "test": "Induction of apoptosis in human HL60 cells assessed as activation of MKK3/6 on exposure to 2.5 J/cm'2 light for 2 hrs by Western blot analysis", "assay_type": "functional, cell-based"}, "[11]": {"test_system": "HL-60", "test": "Induction of apoptosis in human HL60 cells at 300 nM on exposure to 2.5 J/cm'2 light for 5.5 hrs by annexin V-propidium iodide staining", "assay_type": "functional"}, "[12]": {"test_system": "HL-60", "test": "Induction of apoptosis in human HL60 cells assessed as DNA fragmentation at 500 to 600 nM after 16 hrs on exposure to 2.5 J/cm'2 light by agarose gel electrophoresis", "assay_type": "functional, cell-based"}, "[13]": {"test_system": "HL-60", "test": "Induction of apoptosis in human HL60 cells assessed as activation of caspase 8 on exposure to 2.5 J/cm'2 light for 2 hrs by Western blot analysis", "assay_type": "functional, cell-based"}, "[14]": {"test_system": "HL-60", "test": "Induction of apoptosis in human HL60 cells assessed as viable cells at 300 nM on exposure to 2.5 J/cm'2 light for 5.5 hrs by annexin V-propidium iodide staining", "assay_type": "functional", "conditions": "HL-60, light or radiation study, read-out: Activity"}, "[15]": {"test_system": "HL-60", "test": "Induction of apoptosis in human HL60 cells assessed as cleavage of PARP on exposure to 2.5 J/cm'2 light for 2 hrs by Western blot analysis", "assay_type": "functional, cell-based"}, "[16]": {"test_system": "HL-60", "test": "Induction of apoptosis in human HL60 cells assessed as activation of p38 MAPK on exposure to 2.5 J/cm'2 light for 2 hrs by Western blot analysis", "assay_type": "functional, cell-based"}, "[17]": {"test_system": "HL-60", "test": "Induction of apoptosis in human HL60 cells assessed as activation of caspase 9 on exposure to 2.5 J/cm'2 light for 2 hrs by Western blot analysis", "assay_type": "functional, cell-based"}, "[18]": {"test_system": "HL-60", "test": "Induction of apoptosis in human HL60 cells assessed as reduction in Bcl-2 level on exposure to 2.5 J/cm'2 light for 2 hrs by Western blot analysis", "assay_type": "functional, cell-based"}, "[19]": {"test_system": "HL-60", "test": "Induction of apoptosis in human HL60 cells assessed as early apoptotic cells at 300 nM on exposure to 2.5 J/cm'2 light for 5.5 hrs by annexin V-propidium iodide staining", "assay_type": "functional"}, "[20]": {"test_system": "MDA-MB-231", "test": "Antitumor activity against human MDA-MB-231 cells xenografted Nu/Nu mouse assessed as reduction in maximal tumor growth at 3 mg/kg, iv on exposure to 100 J/cm'2 light for 2 hrs and dose schedule repeated after 1 week", "assay_type": "functional, organism-based", "parameters": "dose 3 mg/kg"}, "[21]": {"test_system": "MDA-MB-231", "test": "Antitumor activity against human MDA-MB-231 cells xenografted Nu/Nu mouse assessed as reduction in maximal tumor growth at 3 mg/kg, iv on exposure to 100 J/cm'2 light for 6 hrs and dose schedule repeated after 1 week", "assay_type": "functional, organism-based", "parameters": "dose 3 mg/kg"}}, "note": "The source made the active and inactive calls. The calls are words filed in the database; no cut-off is given here.", "data": [{"molecule": "Oc1cccc(-c2c3nc(c(-c4cccc(O)c4)c4ccc([nH]4)c(-c4cccc(O)c4)c4nc(c(-c5cccc(O)c5)c5ccc2[nH]5)CC4)C=C3)c1", "note": "[TEMOPORFIN]", "values": [{"measurement": "IC50", "setting": "[1]", "result": 42, "unit": "nM"}, {"measurement": "IC50", "setting": "[2]", "result": 117, "unit": "nM"}]}, {"molecule": "Oc1ccc(-c2c3nc(c(-c4ccc(O)cc4)c4ccc([nH]4)c(-c4ccc(O)cc4)c4nc(c(-c5ccc(O)cc5)c5ccc2[nH]5)C=C4)C=C3)cc1", "values": [{"measurement": "IC50", "setting": "[3]", "result": 1050, "unit": "nM"}]}, {"molecule": "OCCOc1cccc(-c2c3nc(c(-c4cccc(O)c4)c4ccc([nH]4)c(-c4ccc(O)cc4)c4nc(c(-c5cccc(O)c5)c5ccc2[nH]5)C=C4)C=C3)c1", "values": [{"measurement": "IC50", "setting": "[4]", "result": 143, "unit": "nM"}, {"measurement": "IC50", "setting": "[5]", "result": 93, "unit": "nM"}]}, {"molecule": "OCCOc1c(F)c(F)c(-c2c3nc(c(-c4c(F)c(F)c(OCCO)c(F)c4F)c4ccc([nH]4)c(-c4c(F)c(F)c(OCCO)c(F)c4F)c4nc(c(-c5c(F)c(F)c(OCCO)c(F)c5F)c5ccc2[nH]5)C=C4)C=C3)c(F)c1F", "values": [{"measurement": "Activity", "setting": "[6]", "result": 15.6, "unit": "%"}, {"measurement": "Activity", "setting": "[7]", "result": "Active"}, {"measurement": "IC50", "setting": "[4]", "result": 200, "unit": "nM"}, {"measurement": "Activity", "setting": "[8]", "result": "Active"}, {"measurement": "Activity", "setting": "[9]", "result": "Active"}, {"measurement": "IC50", "setting": "[5]", "result": 150, "unit": "nM"}, {"measurement": "Activity", "setting": "[10]", "result": "Active"}, {"measurement": "Activity", "setting": "[11]", "result": 0.63, "unit": "%"}, {"measurement": "Activity", "setting": "[12]", "result": "Active"}, {"measurement": "Activity", "setting": "[13]", "result": "Active"}, {"measurement": "viability at 0.3 µM", "setting": "[14]", "result": 24.1, "unit": "%"}, {"measurement": "Activity", "setting": "[15]", "result": "Active"}, {"measurement": "Activity", "setting": "[16]", "result": "Active"}, {"measurement": "Activity", "setting": "[17]", "result": "Active"}, {"measurement": "Activity", "setting": "[18]", "result": "Active"}, {"measurement": "Activity", "setting": "[19]", "result": 59.7, "unit": "%"}]}, {"molecule": "OCCOc1cccc(-c2c3nc(c(-c4cccc(OCCO)c4)c4ccc([nH]4)c(-c4cccc(O)c4)c4nc(c(-c5ccc(O)cc5)c5ccc2[nH]5)C=C4)C=C3)c1", "values": [{"measurement": "Activity", "setting": "[20]", "result": "Active"}, {"measurement": "IC50", "setting": "[4]", "result": 95, "unit": "nM"}, {"measurement": "IC50", "setting": "[5]", "result": 33, "unit": "nM"}, {"measurement": "Activity", "setting": "[21]", "result": "Active"}]}]}
